# Data published in PubChem BioAssay (NCI).
#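 Method: 48-hour compound exposure of cells in 96-well plates, five concentrations, linear interpolation of endpoints. TGI: concentration producing complete growth inhibition.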
# Key:
# Assay in all cases: NCI anticancer screen, dose series, 48 h
# MDA-MB-231 breast = test system: MDA-MB-231 breast
# HOP-62 NSCLC = test system: HOP-62 NSCLC
# K-562 leukemia = test system: K-562 leukemia
# SF-268 CNS = test system: SF-268 CNS
# 786-0 renal = test system: 786-0 renal
# A498 renal = test system: A498 renal
# OVCAR-3 ovarian = test system: OVCAR-3 ovarian
# KM12 colon = test system: KM12 colon
# SN12C renal = test system: SN12C renal
# SF-539 CNS = test system: SF-539 CNS
# SW-620 colon = test system: SW-620 colon
# SK-MEL-5 melanoma = test system: SK-MEL-5 melanoma
# DU-145 prostate = test system: DU-145 prostate
# RXF 393 renal = test system: RXF 393 renal
# HCC-2998 colon = test system: HCC-2998 colon
# HT29 colon = test system: HT29 colon
# MCF7 breast = test system: MCF7 breast
# UO-31 renal = test system: UO-31 renal
# OVCAR-8 ovarian = test system: OVCAR-8 ovarian
# BT-549 breast = test system: BT-549 breast
# SK-MEL-2 melanoma = test system: SK-MEL-2 melanoma
# UACC-257 melanoma = test system: UACC-257 melanoma
# SF-295 CNS = test system: SF-295 CNS
# LOX IMVI melanoma = test system: LOX IMVI melanoma
# NCI-H226 lung = test system: NCI-H226 lung
# SK-MEL-28 melanoma = test system: SK-MEL-28 melanoma
# CCRF-CEM leukemia = test system: CCRF-CEM leukemia
# HCT-116 colon = test system: HCT-116 colon
# SNB-75 CNS = test system: SNB-75 CNS
# HL-60(TB) leukemia = test system: HL-60(TB) leukemia
# NCI-H460 lung = test system: NCI-H460 lung
# OVCAR-4 ovarian = test system: OVCAR-4 ovarian
# OVCAR-5 ovarian = test system: OVCAR-5 ovarian
# HOP-92 NSCLC = test system: HOP-92 NSCLC
# MDA-MB-435 = test system: MDA-MB-435
# SNB-19 CNS = test system: SNB-19 CNS
# UACC-62 melanoma = test system: UACC-62 melanoma
# HCT-15 colon = test system: HCT-15 colon
# HS 578T breast = test system: HS 578T breast
# ACHN renal = test system: ACHN renal
# MALME-3M melanoma = test system: MALME-3M melanoma
# T-47D breast = test system: T-47D breast
# RPMI-8226 leukemia = test system: RPMI-8226 leukemia
# TK-10 renal = test system: TK-10 renal
# U251 CNS = test system: U251 CNS
# SK-OV-3 ovarian = test system: SK-OV-3 ovarian
# CAKI-1 renal = test system: CAKI-1 renal
# COLO 205 colon = test system: COLO 205 colon
# EKVX NSCLC = test system: EKVX NSCLC
# A549 NSCLC = test system: A549 NSCLC
# NCI-H522 lung = test system: NCI-H522 lung
# PC-3 prostate = test system: PC-3 prostate
# NCI/ADR-RES ovarian = test system: NCI/ADR-RES ovarian
# IGROV1 ovarian = test system: IGROV1 ovarian
# MDA-N = test system: MDA-N
# M14 melanoma = test system: M14 melanoma
# NCI-H23 lung = test system: NCI-H23 lung
# MOLT-4 leukemia = test system: MOLT-4 leukemia
# SR leukemia = test system: SR leukemia
structure (smiles),measurement,setting,value
CCN1CCC(O)(/C=C/c2ccc(Cl)c(Cl)c2)C(C(=O)/C=C/c2ccc(Cl)c(Cl)c2)C1 (stereo unspecified),TGI,MDA-MB-231 breast,1.6 µM
same,TGI,HOP-62 NSCLC,2.48 µM
same,TGI,K-562 leukemia,8.51 µM
same,TGI,SF-268 CNS,2.54 µM
same,TGI,786-0 renal,2.7 µM
same,TGI,A498 renal,2.91 µM
same,TGI,OVCAR-3 ovarian,1.91 µM
same,TGI,KM12 colon,1.88 µM
same,TGI,SN12C renal,2.06 µM
same,TGI,SF-539 CNS,3.55 µM
same,TGI,SW-620 colon,1.4 µM
same,TGI,SK-MEL-5 melanoma,2.18 µM
same,TGI,DU-145 prostate,3.24 µM
same,TGI,RXF 393 renal,2.71 µM
same,TGI,HCC-2998 colon,3.25 µM
same,TGI,HT29 colon,1.82 µM
same,TGI,MCF7 breast,2.67 µM
same,TGI,UO-31 renal,2.3 µM
same,TGI,OVCAR-8 ovarian,1.87 µM
same,TGI,BT-549 breast,2.01 µM
same,TGI,SK-MEL-2 melanoma,3.66 µM
same,TGI,UACC-257 melanoma,2.71 µM
same,TGI,SF-295 CNS,1.74 µM
same,TGI,LOX IMVI melanoma,2.02 µM
same,TGI,NCI-H226 lung,3.81 µM
same,TGI,SK-MEL-28 melanoma,7.97 µM
same,TGI,CCRF-CEM leukemia,1.13 µM
same,TGI,HCT-116 colon,1.73 µM
same,TGI,SNB-75 CNS,2.37 µM
same,TGI,HL-60(TB) leukemia,0.905 µM
same,TGI,NCI-H460 lung,2.02 µM
same,TGI,OVCAR-4 ovarian,2.21 µM
same,TGI,OVCAR-5 ovarian,2.52 µM
same,TGI,HOP-92 NSCLC,1.58 µM
same,TGI,MDA-MB-435,2.22 µM
same,TGI,SNB-19 CNS,3.71 µM
same,TGI,UACC-62 melanoma,2.4 µM
same,TGI,HCT-15 colon,4.52 µM
same,TGI,HS 578T breast,2.42 µM
same,TGI,ACHN renal,2.43 µM
same,TGI,MALME-3M melanoma,2.5 µM
same,TGI,T-47D breast,2.36 µM
same,TGI,RPMI-8226 leukemia,> 100 µM
same,TGI,TK-10 renal,2.81 µM
same,TGI,U251 CNS,3.79 µM
same,TGI,SK-OV-3 ovarian,4.61 µM
same,TGI,CAKI-1 renal,3.21 µM
same,TGI,COLO 205 colon,1.74 µM
same,TGI,EKVX NSCLC,1.89 µM
same,TGI,A549 NSCLC,1.72 µM
same,TGI,NCI-H522 lung,2.33 µM
same,TGI,PC-3 prostate,1.05 µM
same,TGI,NCI/ADR-RES ovarian,2.27 µM
same,TGI,IGROV1 ovarian,1.71 µM
same,TGI,MDA-N,2.89 µM
same,TGI,M14 melanoma,1.76 µM
same,TGI,NCI-H23 lung,2.06 µM
COC(=O)[C@@]1(Cc2ccc(OC(C)=O)cc2)Cc2cc3ccccc3n2N1,TGI,MDA-MB-231 breast,> 100 µM
same,TGI,HOP-62 NSCLC,> 100 µM
same,TGI,SF-268 CNS,> 100 µM
same,TGI,786-0 renal,> 100 µM
same,TGI,A498 renal,87.3 µM
same,TGI,OVCAR-3 ovarian,> 100 µM
same,TGI,KM12 colon,> 100 µM
same,TGI,SN12C renal,> 100 µM
same,TGI,SF-539 CNS,> 100 µM
same,TGI,SW-620 colon,> 100 µM
same,TGI,MOLT-4 leukemia,> 100 µM
same,TGI,SK-MEL-5 melanoma,37.1 µM
same,TGI,DU-145 prostate,> 100 µM
same,TGI,HT29 colon,> 100 µM
same,TGI,MCF7 breast,> 100 µM
same,TGI,UO-31 renal,> 100 µM
same,TGI,OVCAR-8 ovarian,> 100 µM
same,TGI,BT-549 breast,> 100 µM
same,TGI,SK-MEL-2 melanoma,52.2 µM
same,TGI,UACC-257 melanoma,52.1 µM
same,TGI,SF-295 CNS,> 100 µM
same,TGI,LOX IMVI melanoma,> 100 µM
same,TGI,NCI-H226 lung,> 100 µM
same,TGI,SK-MEL-28 melanoma,> 100 µM
same,TGI,CCRF-CEM leukemia,> 100 µM
same,TGI,HCT-116 colon,> 100 µM
same,TGI,HL-60(TB) leukemia,80.8 µM
same,TGI,OVCAR-4 ovarian,> 100 µM
same,TGI,OVCAR-5 ovarian,> 100 µM
same,TGI,HOP-92 NSCLC,> 100 µM
same,TGI,MDA-MB-435,> 100 µM
same,TGI,SNB-19 CNS,> 100 µM
same,TGI,UACC-62 melanoma,> 100 µM
same,TGI,HCT-15 colon,> 100 µM
same,TGI,HS 578T breast,> 100 µM
same,TGI,ACHN renal,> 100 µM
same,TGI,MALME-3M melanoma,> 100 µM
same,TGI,T-47D breast,> 100 µM
same,TGI,RPMI-8226 leukemia,> 100 µM
same,TGI,TK-10 renal,> 100 µM
same,TGI,U251 CNS,> 100 µM
same,TGI,SK-OV-3 ovarian,> 100 µM
same,TGI,SR leukemia,70.6 µM
same,TGI,CAKI-1 renal,> 100 µM
same,TGI,COLO 205 colon,92.7 µM
same,TGI,EKVX NSCLC,> 100 µM
same,TGI,A549 NSCLC,> 100 µM
same,TGI,NCI-H522 lung,> 100 µM
same,TGI,PC-3 prostate,> 100 µM
same,TGI,NCI/ADR-RES ovarian,96.4 µM
same,TGI,IGROV1 ovarian,> 100 µM
same,TGI,MDA-N,77.6 µM
same,TGI,M14 melanoma,> 100 µM
same,TGI,NCI-H23 lung,> 100 µM
